Assay results as given in patent US9486507B2, “Pro-coagulant compounds and methods of use thereof” (priority 2011, dated 2016).

What was measured:
Type in all cases: biochemical
[1] = tested on: FVIII deficient human plasma; test: Thrombin generation assay (TGA) in FVIII-deficient plasma; parameters: key to Thrombin Above Baseline (nM): 1-10 nM (1) or 1-29 nM (2) (+); 11-20 nM (1) or 30-59 nM (2) (++); 21-30 nM (1) or 60-90 nM (2) (+++); >30 nM (1) or >90 nM (2) (++++); At or about baseline (−)
FIXa = FIXa (Homo sapiens, UniProt P00740); test: FXa generation assay with human FIXa; parameters: purchased Haematologic Technologies
Source text: FXa generation was utilized to assess the capability of the compounds of the present disclosure to enhance the catalytic activities of FIXa and/or FVIIa.
To measure the catalytic activity of FIXa, FIXa was mixed with FX and phospholipids in the presence of calcium chloride. Under these conditions FIXa cleaves the zymogen FX into the active form FXa.
The generation of FXa is monitored by the change in absorbance of the reaction at 405 nm due to the presence of a cleavable FXa chromogenic substrate (S-2765; Z-D-Arg-Gly-Arg-pNA; cleavage of p-nitroaniline). […] The kit contains all the FXa generation components, however, FIXa and FX obtained from this kit are from a bovine origin and were replaced with purified human FIXa or human FVIIa and human FX (Haematologic Technologies).
The assay was also modified to enhance the screening throughput. Instead of the sequential addition, all the assay components were mixed and added simultaneously to the purified compound to be assayed. A 125 μl reaction mix of the assay components was prepared in the buffer supplied by the manufacturer (50 mM Tris 7.3, and 1% BSA). […] The reaction mix (125 ul) was then added to 25 ul of compound diluted in water in a Costar-3651 flat bottom 96-well plate. […] The absorbance was monitored over a period of 1 hour at 405 nm using a plate reader (Synergy 2, Biotek).
The 405 nm absorbance data were then analyzed to obtain the slope of the first derivative which reflects the rate of change in absorbance. The first derivative slope data for each compound concentration were plotted against the compound concentration and fitted to a four-parameter equation to obtain the EC50 and Vmax values for each compound tested.

[2] = tested on: 10% FVIII-deficient human plasma; test: Modified activated partial thromboplastin time (aPTT*) assay
Procedure: For the activated Partial Thromboplastin Time (aPTT) assay peptides to be tested were first diluted in 10% FVIII-deficient human plasma. For the aPTT* the peptides were diluted in 10% FVIII-deficient human plasma that contained traces of hFIXa (anywhere between 0 and 8.8 nM hFIXa depending on the assay) in Tris/NaCl/BSA buffer. The peptides were incubated for 10 minutes at room temperature and then assayed for clotting on a Sysmex instrument that recorded the clotting time observed for each sample. The times were compared to those of a standard curve derived from standards with known FVIII activity (U/mL) in order to determine the clotting outcome.

[3] = Precision Biologics FVIII-deficient plasma (2), second Baseline (2) series, 2.5 μM
[4] = Precision Biologics FVIII-deficient plasma (2), second Baseline (2) series, 5 μM
[5] = Precision Biologics FVIII-deficient plasma (2), second Baseline (2) series, 10 μM
[6] = Precision Biologics FVIII-deficient plasma (2), second Baseline (2) series, 20 μM
[7] = FXa generation assay, 10 nM hFIXa, 100 nM hFX, class symbols
[8] = Precision Biologics FVIII-deficient plasma (2), first Baseline (2) series, 2.5 μM
[9] = Precision Biologics FVIII-deficient plasma (2), first Baseline (2) series, 5 μM
[10] = Precision Biologics FVIII-deficient plasma (2), first Baseline (2) series, 10 μM
[11] = FXa generation assay using human FIXa, class symbols

Chain of FIXa (P00740 47-191 limits assumed): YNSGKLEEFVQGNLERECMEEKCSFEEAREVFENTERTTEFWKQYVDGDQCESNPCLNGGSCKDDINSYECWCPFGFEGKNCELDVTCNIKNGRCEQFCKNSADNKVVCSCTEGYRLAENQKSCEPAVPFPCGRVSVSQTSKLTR
Chain of FIXa (P00740 227-461 limits assumed): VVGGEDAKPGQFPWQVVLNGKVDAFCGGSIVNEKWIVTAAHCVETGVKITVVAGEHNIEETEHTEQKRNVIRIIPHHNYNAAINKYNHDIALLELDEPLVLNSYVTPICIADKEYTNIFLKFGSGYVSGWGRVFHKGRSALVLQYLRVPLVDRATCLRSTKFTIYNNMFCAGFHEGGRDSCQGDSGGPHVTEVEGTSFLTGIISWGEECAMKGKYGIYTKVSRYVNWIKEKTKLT

Substance: PRSRTVGPGSRSASGKSTCLASYCWLFWTGIA
- Thrombin Above Baseline (nM) [1, 3]: ++ (11-20 nM (1) or 30-59 nM (2) (++))
- Thrombin Above Baseline (nM) [1, 4]: +++ (21-30 nM (1) or 60-90 nM (2) (+++))
- Thrombin Above Baseline (nM) [1, 5]: ++++ (>30 nM (1) or >90 nM (2) (++++))
- Thrombin Above Baseline (nM) [1, 6]: ++++ (>30 nM (1) or >90 nM (2) (++++))
- Vmax (FIXa; [7]): (++++) ((++++)>3)

Substance: PSIRTVGPGSRSASGKLTCLASYCWLFWTGIA
- Thrombin Above Baseline (nM) [1, 8]: + (1-10 nM (1) or 1-29 nM (2) (+))
- Thrombin Above Baseline (nM) [1, 9]: + (1-10 nM (1) or 1-29 nM (2) (+))
- Thrombin Above Baseline (nM) [1, 10]: + (1-10 nM (1) or 1-29 nM (2) (+))
- Vmax (FIXa; [7]): (++++) ((++++)>3)

Substance: PWRRFWAWNPRSLALSTWFGRGCD [Compound 8, reference compound]
- TGA activity in the presence of FVIII ([1]; 0.1 U/mL FVIII, compound 7 100-6.3 uM, compounds 8 and 9 50-3.1 uM): competes with FVIII

Substance: SRIRTVGPGSRSASGKLTCLASYCWLFWTGIA
- Thrombin Above Baseline (nM) [1, 8]: ++ (11-20 nM (1) or 30-59 nM (2) (++))
- Thrombin Above Baseline (nM) [1, 9]: +++ (21-30 nM (1) or 60-90 nM (2) (+++))
- Thrombin Above Baseline (nM) [1, 10]: ++++ (>30 nM (1) or >90 nM (2) (++++))
- Vmax (FIXa; [7]): (++++) ((++++)>3)

Substance: SRIRTVGPGSRSASGKSTCLASYCWLFWTGIA
- Thrombin Above Baseline (nM) [1, 3]: +++ (21-30 nM (1) or 60-90 nM (2) (+++))
- Thrombin Above Baseline (nM) [1, 4]: ++++ (>30 nM (1) or >90 nM (2) (++++))
- Thrombin Above Baseline (nM) [1, 5]: ++++ (>30 nM (1) or >90 nM (2) (++++))
- Vmax (FIXa; [7]): (++++) ((++++)>3)

Substance: SRIRTVSPGSRSASGKSTCLASYCWLFWTGIA
- Thrombin Above Baseline (nM) [1, 3]: +++ (21-30 nM (1) or 60-90 nM (2) (+++))
- Thrombin Above Baseline (nM) [1, 4]: +++ (21-30 nM (1) or 60-90 nM (2) (+++))
- Thrombin Above Baseline (nM) [1, 5]: ++++ (>30 nM (1) or >90 nM (2) (++++))
- Thrombin Above Baseline (nM) [1, 6]: ++++ (>30 nM (1) or >90 nM (2) (++++))
- Vmax (FIXa; [7]): (++++) ((++++)>3)

Substance: SRSRTVSPGSRSASGKSTCLASYCWLFWTGIA
- Thrombin Above Baseline (nM) [1, 3]: +++ (21-30 nM (1) or 60-90 nM (2) (+++))
- Thrombin Above Baseline (nM) [1, 4]: ++++ (>30 nM (1) or >90 nM (2) (++++))
- Thrombin Above Baseline (nM) [1, 5]: ++++ (>30 nM (1) or >90 nM (2) (++++))
- Vmax (FIXa; [7]): (++++) ((++++)>3)

Substance: VSGTGRLTCVASYCWMFQLGSF
- Vmax (FIXa; [11]): (++) ((++) 1-2)

Substance: WHERQQLTCLASYCGLFVGQVA
- Vmax (FIXa; [11]): (+) ((+)<1)

Substance: WVPQWKVTCLASCSRLFHGFDA
- Vmax (FIXa; FXa generation assay using human FIXa, numeric bounds): >1.5

Substance: YARDSTLTCQARTCQLVDYLGP
- Vmax (FIXa; [11]): (+) ((+)<1)

Substance: k-MeLeu-TCLASYCWLF
- Thrombin Above Baseline (nM) ([1]; HRF FVIII-deficient plasma (1), 2.5 μM): + (1-10 nM (1) or 1-29 nM (2) (+))
- Thrombin Above Baseline (nM) ([1]; HRF FVIII-deficient plasma (1), 5 μM): −
- Thrombin Above Baseline (nM) ([1]; HRF FVIII-deficient plasma (1), 10 μM): −
- Thrombin Above Baseline (nM) ([1]; HRF FVIII-deficient plasma (1), 20 μM): + (1-10 nM (1) or 1-29 nM (2) (+))
- Vmax (FIXa; [11]): (++++) ((++++)>3)
- Vmax (FIXa; FXa generation assay, 10 nM hFIXa, 100 nM hFX, class symbols, listed as SEQ ID NO: 232): (+++) ((+++)>2)

Substance: k-MeLeu-TCLASYCWLF [Compound 2]
- Clotting time ([2]; aPTT* with FIXa, 5 μM): 50.3 s
- Clotting time, sec ([2]; aPTT* with FIXa, 5 μM): 51.1; sec
- Clotting time ([2]; aPTT* with FIXa, 10 μM): 42.2 s
- Clotting time, sec ([2]; aPTT* with FIXa, 10 μM): 42.9; sec
- Clotting time ([2]; aPTT* with FIXa, 20 μM): 42.3 s
- Clotting time, sec ([2]; aPTT* with FIXa, 20 μM): 42.4; sec
- Clotting time ([2]; aPTT*, FIXa 1 nM): 91.4 s
- Clotting time, sec ([2]; aPTT*, FIXa 1 nM): 86.8; sec
- Clotting time ([2]; aPTT*, FIXa 2 nM): 49.6 s
- Clotting time, sec ([2]; aPTT*, FIXa 2 nM): 51.3; sec
- Clotting time ([2]; aPTT*, FIXa 4 nM): 42.7 s
- Clotting time, sec ([2]; aPTT*, FIXa 4 nM): 46.0; sec
- Clotting time ([2]; aPTT*, FIXa 8 nM): 37.1 s
- Clotting time, sec ([2]; aPTT*, FIXa 8 nM): 34.4; sec
- Vmax (FIXa; [7]): (++++) ((++++)>3)
- Vmax (mOD/min min) (FIXa; PL: No): 3.05 mOD/min min
- Vmax (mOD/min min) (FIXa; PL: Yes): 4.22 mOD/min min
